{"source": "patent US20260097047A1", "about": "“Small molecule inhibitors of the ribosome biogenesis factor NVL2” (Board of Regents, The University of Texas System, priority 2023, published 2026)", "system": "HCT116 cells", "experiment": "Cell viability assay (CellTiter-Glo, 72 hours) in HCT116 human colorectal cancer cells", "assay_type": "cell-based", "method_in_brief": "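2,000 cells/well adhered overnight, then compound added by digital dispenser with DMSO normalized to 0.5%. Viability read after 72 h at 37 °C by ATP-based CellTiter-Glo luminescence. IC50 from ten-point curves baseline-corrected to vehicle, five-parameter asymmetric least-squares fit.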", "key": {"[1]": {"settings": "Table 7, cell viability assay, CellTiter-Glo, 72 hours, scaffold drawing 42 with R^2, R^3, X/Y, Z, read-out: Activity"}, "[2]": {"settings": "Table 5, HCT116, 72 hours, read-out: Activity"}, "[3]": {"settings": "Table 8, analogs of scaffold drawing 43 defined by R^2, R^3, X/Y, W, read-out: Activity (IC50 class, cell viability assay)"}, "[4]": {"settings": "Table 9, HCT116, 72 hours, read-out: Activity"}}, "note": "pIC50: −log10 of the molar value. Where two headings read alike, the source gives them in different places."}
{"smiles": "COCCN1C(=O)c2ccccc2Sc2cc(NC(=O)c3ccc4ncoc4c3)ccc21", "values": [{"measurement": "pIC50", "setting": "[1]", "result": "5.30 to 6.00"}]}
{"smiles": "CCCC=CCN1C(=O)c2ccccc2Sc2cc(Nc3ncccc3C#N)cnc21", "values": [{"measurement": "pIC50", "setting": "[2]", "result": "> 6.30"}]}
{"smiles": "CC#CCN1C(=O)c2ccccc2Sc2cc(NC(=O)C3CNC(=O)C3)ccc21", "note": "(stereo not drawn) [—CH2CCMe; 5-oxopyrrolidin-3-yl; CH/CH; CH]", "values": [{"measurement": "pIC50", "setting": "[3]", "result": "> 6.30"}]}
{"smiles": "COC12CC(C(=O)Nc3cnc4c(c3)Sc3ccccc3C(=O)N4CC#CC(F)(F)F)(C1)C2", "values": [{"measurement": "pIC50", "setting": "[3]", "result": "> 6.30"}]}
{"smiles": "CC#CCN1C(=O)c2ccccc2C(C)c2cc(NC(=O)C3CC3CO)ccc21", "note": "(stereo not drawn)", "values": [{"measurement": "pIC50", "setting": "[4]", "result": "> 6.30"}]}
{"smiles": "CC#CCN1C(=O)c2ccccc2Sc2cc(NC3COCC3OC)ccc21", "note": "(stereo not drawn) [10-(But-2-yn-1-yl)-7-((4-methoxytetrahydrofuran-3-yl)amino)dibenzo[b,f][1,4]thiazepin-11 (10H)-one]", "values": [{"measurement": "pIC50", "setting": "Homo sapiens, HCT-116, Table 6, HCT116, 72 hours, read-out: Activity", "result": "> 6.30"}]}
{"smiles": "CC#CCN1C(=O)c2ccccc2Sc2cc(NC(=S)Nc3cccc(OCF)c3)ccc21", "note": "[Table 4: —CH2CCMe; 3-FH2COPh; CH]", "values": [{"measurement": "pIC50", "setting": "Table 4, HCT116, 72 hours, read-out: Activity", "result": "> 6.30"}]}
{"smiles": "COCCN1C(=O)c2ccccc2Sc2cc(NC(=O)c3cccc(F)c3)ccc21", "note": "[—(CH2)2OMe; 3-FPh; CH/CH; S]", "values": [{"measurement": "pIC50", "setting": "[1]", "result": "5.30 to 6.00"}]}
{"smiles": "COCCCC(=O)Nc1cnc2c(c1)Sc1ccccc1C(=O)N2CC#CC1CC1", "note": "[—CH2CC^cPr; (CH2)3OMe; CH/CH; N]", "values": [{"measurement": "pIC50", "setting": "[3]", "result": "> 6.30"}]}
{"smiles": "C#CCN1C(=O)c2ccccc2Sc2cc(NC3CC4(COC4)C3)cnc21", "values": [{"measurement": "pIC50", "setting": "Table 6, HCT116, 72 hours, read-out: Activity", "result": "> 6.30"}]}
{"smiles": "CC#CCN1C(=O)c2ccccc2Sc2cc(NC(=O)C3CC4(CC(=O)C4)C3)cnc21", "values": [{"measurement": "pIC50", "setting": "[3]", "result": "> 6.30"}]}
{"smiles": "C#CCN1C(=O)c2ccc(Cl)cc2Sc2cc(NC(=O)C3CC4(CC(=NO)C4)C3)ccc21", "note": "(stereo not drawn)", "values": [{"measurement": "pIC50", "setting": "[3]", "result": "> 6.30"}]}
{"smiles": "CC#CCN1C(=O)c2ccccc2Sc2cc(NC(=O)C3CC4(CC(=O)C4)C3)ccc21", "values": [{"measurement": "pIC50", "setting": "[3]", "result": "> 6.30"}]}
{"smiles": "CC#CCN1C(=O)c2ccccc2Sc2cc(NC(=S)N3CCC3)ccc21", "note": "[Table 2: —CH2CCMe; azetidin-1-yl; CH; CH]", "values": [{"measurement": "pIC50", "setting": "Table 2, HCT116, 72 hours, read-out: Activity", "result": "> 6.30"}]}
{"smiles": "CO[C@H]1C[C@@H](C(=O)Nc2ccc3c(c2)Sc2ccc(F)cc2C(=O)N3CC#CCF)C1", "note": "[—CH2CCCH2F; cis-3-MeOcBu; CH/CF; CH]", "values": [{"measurement": "pIC50", "setting": "[3]", "result": "> 6.30"}]}
{"smiles": "COCCN1C(=O)c2ccccc2Sc2cc(NC(=O)c3ccc(OC(F)(F)F)cc3)ccc21", "note": "[—(CH2)2OMe; 4-CF3OPh; CH/CH; S]", "values": [{"measurement": "pIC50", "setting": "[1]", "result": "5.30 to 6.00"}]}
{"smiles": "CC#CCN1C(=O)c2ccccc2Sc2cc(NC(=O)C3CC(OC)C3)ccc21", "note": "(stereo not drawn) [—CH2CCMe; cis-3-MeOcBu; CH/CH; CH]", "values": [{"measurement": "pIC50", "setting": "[3]", "result": "> 6.30"}, {"measurement": "pIC50", "setting": "cell viability assay, Table 10 analogs of scaffold drawing 45 defined by R2, R3, X/Y, W, read-out: Activity", "result": "> 6.30"}]}
{"smiles": "CC#CCN1C(=O)c2ccccc2Cc2cc(NC(=O)[C@H]3C[C@H](OC)C3)ccc21", "note": "[Table 9: —CH2CCMe; trans-3-MeOcBu; CH2]", "values": [{"measurement": "pIC50", "setting": "[4]", "result": "> 6.30"}]}
{"smiles": "O=C(Nc1cnc2c(c1)Sc1ccccc1C(=O)N2CC#CC(F)(F)F)C1CC2(CC(=NO)C2)C1", "note": "(stereo not drawn)", "values": [{"measurement": "pIC50", "setting": "[3]", "result": "> 6.30"}]}
{"smiles": "CC#CCN1C(=O)c2ccccc2Sc2cc(NC(=S)Nc3ccc(OC)nc3)ccc21", "note": "[1-(10-(But-2-yn-1-yl)-11-oxo-10,11-dihydrodibenzo[b,f][1,4]thiazepin-7-yl)-3-(6-methoxypyridin-3-yl)thiourea]", "values": [{"measurement": "pIC50", "setting": "Homo sapiens, HCT-116, Table 4, HCT116, 72 hours, read-out: Activity", "result": "> 6.30"}]}
{"smiles": "CC#CCN1C(=O)c2ccccc2Sc2cc(NC(=O)C34CC(F)(C3)C4)ccc21", "values": [{"measurement": "pIC50", "setting": "[3]", "result": "> 6.30"}]}
{"smiles": "CC#CCN1C(=O)c2ccc(Cl)cc2Sc2cc(NC(=O)[C@H]3C[C@@H](O)C3)ccc21", "note": "[—CH2CCMe; cis-3-OH-cBu; CCI/CH; CH]", "values": [{"measurement": "pIC50", "setting": "[3]", "result": "> 6.30"}]}
{"smiles": "CC#CCN1C(=O)c2ccccc2Sc2cc(Nc3cccnn3)cnc21", "values": [{"measurement": "pIC50", "setting": "[2]", "result": "> 6.30"}]}
{"smiles": "CC=CCN1C(=O)c2ccccc2Sc2cc(Nc3ncccc3C#N)cnc21", "values": [{"measurement": "pIC50", "setting": "[2]", "result": "> 6.30"}]}
{"smiles": "CC#CCN1C(=O)c2cc(F)ccc2Sc2cc(NC(=O)C=CCOC)ccc21", "note": "[—CH2CCMe; CH—═CHCH2OMe; CH/CF; CH]", "values": [{"measurement": "pIC50", "setting": "[3]", "result": "> 6.30"}]}
{"smiles": "CCC/C=C/CN1C(=O)c2ccccc2Sc2cc(Nc3cc(C)ccn3)ccc21", "note": "[(E)-10-(Hex-2-en-1-yl)-7-((4-methylpyridin-2-yl)amino)dibenzo[b,f][1,4]thiazepin-11 (10H)-one]", "values": [{"measurement": "pIC50", "setting": "Homo sapiens, HCT-116, Table 5, HCT116, 72 hours, read-out: Activity", "result": "6.00 to 6.30"}]}
{"smiles": "CC#CCN1C(=O)c2ccccc2Sc2cc(NC(=O)c3ccc(OC)nc3)cnc21", "note": "[—CH2CCMe; 6-MeO-pyrid-3-yl; CH/CH; N]", "values": [{"measurement": "pIC50", "setting": "[3]", "result": "> 6.30"}]}
{"smiles": "COCCN1C(=O)c2ccccc2Sc2cc(NC(=O)c3ccc4oc(=O)[nH]c4c3)ccc21", "values": [{"measurement": "pIC50", "setting": "[1]", "result": "5.30 to 6.00"}]}
{"smiles": "O=C(Nc1cnc2c(c1)Sc1ccc(F)cc1C(=O)N2CC#CC1CC1)C1CC2(CC(O)C2)C1", "note": "(stereo not drawn)", "values": [{"measurement": "pIC50", "setting": "[3]", "result": "> 6.30"}]}
